Data taken from patent publication US8076281B2, “Use of a ghrelin agonist to improve the catabolic effects of glucocorticoid treatment” (IPSEN Pharma, S.A.S., priority 2006, dated 2011).

Columns and labels:
[1] = Effects of pharmacological treatments on growth parameters in young rats; type: in vivo, Sprague-Dawley rats; details: FIG. 3; for somatic growth: young male rats, compared to SAL-treated rats
Experimental: Thirty-two prepubertal male Sprague-Dawley rats approximately 21 days old and weighing between 45 and 55 grams, were obtained from Harlan, Italy (S. Pietro al Natisone, ITALY). During the study, the animals were maintained in accordance with the guidelines of the Italian Ministry of Health for the care and use of laboratory animals (Decreto legge 116/92). The animals were randomly divided into two treatment groups and kept in a controlled environment at a constant temperature of 21-23° C. with 12:12 light/dark exposure continuous period wherein the light exposure began at approximately 8:00 am and ended at approximately 8:00 pm. The animals were provided with water and food ad libitum consisting of an approximate 3200 calories/kg daily diet of standard pellet chow provided by Piccioni, Gessate-Milano, Italy (containing at least 19% protein, 3% fat and 56% carbohydrate).
Beginning on the 23rd day (i.e., the animals were 23 days old), 16 of the study animals were treated intraperitoneally (Ip) daily with 40 μg/kg of either saline or dexamethasone sodium phosphate (sold under the trademark Decadron® by Merck Pharmaceuticals, West Point, Pa.). […] At irregular intervals, the cumulative food intake for a 24-hour period of time was measured. Beginning on the 46th day (i.e., the animals were 46 days old), the length of the test and control animals from nose to anus was measured (hereinafter referred to as “the nose-anal length”). […]
Unless otherwise stated, the results reported in FIGS. 3-6 are expressed as the mean±SEM of eight replicate test subjects. Data was analyzed for statistical significance by one-way ANOVA which determines the variation (variance) within the groups and how that variation translates into variation (i.e. differences) between the groups, taking into account how many subjects there are in each group. […]

[2] = Effects of pharmacological treatments on plasma hormones and glucose concentrations; type: in vivo, Sprague-Dawley rats; details: for plasma IGF-1 concentration (in words): compared with saline; for plasma corticosterone (in words) / plasma insulin (in words): compared with saline / vehicle
Experimental: (§1) Beginning on the 23rd day (i.e., the animals were 23 days old), 16 of the study animals were treated intraperitoneally (Ip) daily with 40 μg/kg of either saline or dexamethasone sodium phosphate (sold under the trademark Decadron® by Merck Pharmaceuticals, West Point, Pa.). Beginning on the 30th day (i.e., the animals were 30 days old), the subgroup of 16 studied animals was further divided into groups of 8 and treated subcutaneously three times daily (at approximately 9:00 am, 1:00 pm and 5:00 pm) with either 80 nmoles/kg of the preferred ghrelin analog [Aib^2, Glu^3(NH-hexyl)]hGhrelin(1-28)-NH2 (SEQ ID NO:2) (IPSEN, Milford, Mass.) dissolved in a sterile saline solution with 0.25% bovine serum albumin or vehicle (the saline-bovine serum albumin solution alone). This regimen continued for 24 days during which time the studied animals were weighed two times per week. At irregular intervals, the cumulative food intake for a 24-hour period of time was measured. Beginning on the 46th day (i.e., the animals were 46 days old), the length of the test and control animals from nose to anus was measured (hereinafter referred to as “the nose-anal length”). On the 47th day (i.e., the animals were 47 days old), all food was denied to the test subjects commencing at 8:00 am. Small samples of blood were taken via percutaneous puncture of the tail to assess blood glucose levels during the treatment period.
The test animals received two subcutaneous administrations of [Aib^2, Glu^3(NH-hexyl)]hGhrelin(1-28)-NH2 (SEQ ID NO:2) at approximately 9:00 am and 1:00 pm. The studied animals were sacrificed by rapid decapitation at approximately 2:00 pm, trunk blood collected for hormone level determinations, and the epididymal fat pads removed and weighed.
Samples of trunk blood were taken from the test subjects following decapitation. The blood samples were collected in tubes containing EDTA, separated by centrifugation, and stored at −20° C. Plasma insulin, IGF-1, and corticosterone levels were all measured using commercial RIA kits (Insulin and Corticosterone kits were both obtained from ICN-Biomedicals, Asse-Relegem, BELGIUM and the rIGF-1 test kit was obtained from Mediagnostic GMbH, Tubingen, GERMANY). Glucose concentration was determined using the Glucotrend® Soft Test System blood glucose meter (Roche Diagnostics, Barcelona, SPAIN).
Unless otherwise stated, the results reported in FIGS. 3-6 are expressed as the mean±SEM of eight replicate test subjects. Data was analyzed for statistical significance by one-way ANOVA which determines the variation (variance) within the groups and how that variation translates into variation (i.e. differences) between the groups, taking into account how many subjects there are in each group. […] The linear correlation analysis was performed either by Pearson's parametric test or by Spearman's nonparametric test. A P value below 0.05 was considered significant.

[3] = 24-hour food intake and food efficiency; type: in vivo, Sprague-Dawley rats; details: for 24-h food intake: after 10 days of dexamethasone treatment, compared with saline-treated animals, FIG. 4A; for food efficiency: ratio body weight gain (g) / food intake (g), compared with saline treatment
Experimental: as §1
Food efficiency was calculated as the ratio between body weight gain (in grams) and food intake (in grams) measured over the same time interval.

[4] = in the rat; cited from earlier work

Molecule | somatic growth [1] | plasma IGF-1 concentration (in words) [2] | plasma corticosterone (in words) [2] | plasma insulin (in words) [2] | 24-h food intake [3] | food efficiency ([3]; FIG. 4B) | cumulative 24-hour food intake ([3]; up to 10 days from the beginning of the treatment) | glucocorticoid-mediated GH-inhibition [4] | growth suppression induced by DEX ([1]; concomitant treatment in DEX-treated rats) | Glucose ([2]; at sacrifice (day 47), mean ± SEM of eight animals) [mg/dL] | suppression of the HPA axis (corticosterone) in dexamethasone-treated animals ([2]; in dexamethasone-treated animals) | IGF-1 suppression in dexamethasone-treated subjects ([2]; in dexamethasone-treated subjects) | decrease of food efficiency induced by dexamethasone ([3]; in dexamethasone-treated rats, FIG. 4B)
C[C@@H]1C[C@H]2[C@@H]3CCC4=CC(=O)C=C[C@]4(C)[C@@]3(F)[C@@H](O)C[C@]2(C)[C@@]1(O)C(=O)CO [Dexamethasone, 9-fluoro-11β, 17, 21-trihydroxy-16a-methylpregna-1,4-diene-3,20-dione, reference compound] | significantly decreased | significantly reduced | suppressed almost completely | tended to increase plasma insulin concentration, but the effect did not reach statistical significance | significant reduction | significantly reduced food efficiency | did not significantly affect | – | – | – | – | – | –
GHRP-6 | – | – | – | – | – | – | – | completely counteract | – | – | – | – | –
[Aib^2, Glu^3(NH-hexyl)]hGhrelin(1-28)-NH2 (GXEFLSPEHQRVQQRKESKKPPAKLQPR; Aib2, Glu3 NH-hexyl, C-terminal amide; Ghrelin analog) | significantly increased | higher IGF-1 levels | clear-cut increase | unchanged | increased daily food intake | increased food efficiency | – | – | reversed | 122 ± 3 | not able to overcome | partially reversed | able to reverse
